Test results taken from ChEMBL document CHEMBL5291721, “A preclinical secondary pharmacology resource illuminates target-adverse drug reaction associations of marketed drugs” (Nat Commun, 2023).

Columns and labels:
[1] = molecular target: Gamma-aminobutyric acid receptor subunit alpha-1 (Rattus norvegicus, UniProt P62813)
Mu-type opioid receptor = Mu-type opioid receptor (Homo sapiens, UniProt P35372); assay: biochemical; format: functional
Glucocorticoid receptor = molecular target: T1, Glucocorticoid receptor (Homo sapiens, UniProt P04150); format: functional
T1 sequence (P04150 whole entry): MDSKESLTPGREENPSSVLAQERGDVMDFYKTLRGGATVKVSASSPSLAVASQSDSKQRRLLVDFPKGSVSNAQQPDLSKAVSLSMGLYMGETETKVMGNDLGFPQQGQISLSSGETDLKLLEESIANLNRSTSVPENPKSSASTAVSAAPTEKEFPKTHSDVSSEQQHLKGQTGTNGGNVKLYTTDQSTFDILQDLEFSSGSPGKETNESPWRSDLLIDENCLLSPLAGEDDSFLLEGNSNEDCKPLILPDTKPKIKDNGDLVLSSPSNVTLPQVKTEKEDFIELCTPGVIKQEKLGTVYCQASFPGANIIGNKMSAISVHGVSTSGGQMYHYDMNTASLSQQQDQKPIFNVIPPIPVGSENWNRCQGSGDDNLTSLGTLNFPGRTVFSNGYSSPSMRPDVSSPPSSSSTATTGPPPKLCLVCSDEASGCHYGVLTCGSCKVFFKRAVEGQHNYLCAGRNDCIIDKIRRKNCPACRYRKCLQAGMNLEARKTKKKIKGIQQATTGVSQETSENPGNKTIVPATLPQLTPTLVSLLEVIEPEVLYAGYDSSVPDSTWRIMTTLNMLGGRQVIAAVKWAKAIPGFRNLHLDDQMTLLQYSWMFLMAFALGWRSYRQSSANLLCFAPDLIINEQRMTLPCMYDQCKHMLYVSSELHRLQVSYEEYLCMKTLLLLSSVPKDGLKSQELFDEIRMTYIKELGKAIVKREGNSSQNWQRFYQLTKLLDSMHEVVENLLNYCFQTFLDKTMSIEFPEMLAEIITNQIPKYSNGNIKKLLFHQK

Estrogen receptor = molecular target: T2, Estrogen receptor (Homo sapiens, UniProt P03372)
T2 sequence (P03372 whole entry): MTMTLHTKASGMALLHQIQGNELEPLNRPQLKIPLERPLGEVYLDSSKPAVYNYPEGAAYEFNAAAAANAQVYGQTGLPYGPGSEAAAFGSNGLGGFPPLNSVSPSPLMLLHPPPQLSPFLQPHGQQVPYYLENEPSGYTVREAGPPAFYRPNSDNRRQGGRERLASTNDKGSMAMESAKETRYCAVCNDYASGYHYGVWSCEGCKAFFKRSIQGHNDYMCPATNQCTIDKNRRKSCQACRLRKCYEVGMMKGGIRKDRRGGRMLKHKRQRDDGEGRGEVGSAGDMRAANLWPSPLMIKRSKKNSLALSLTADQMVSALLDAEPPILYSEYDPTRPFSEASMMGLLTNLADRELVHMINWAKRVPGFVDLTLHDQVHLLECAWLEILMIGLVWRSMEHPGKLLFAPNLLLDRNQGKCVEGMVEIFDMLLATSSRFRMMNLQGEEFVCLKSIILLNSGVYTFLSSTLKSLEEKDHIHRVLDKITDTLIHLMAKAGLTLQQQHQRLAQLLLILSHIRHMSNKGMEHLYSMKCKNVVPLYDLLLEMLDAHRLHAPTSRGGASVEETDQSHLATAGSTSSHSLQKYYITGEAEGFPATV

Progesterone receptor = molecular target: T3, Progesterone receptor (Homo sapiens, UniProt P06401)
T3 sequence (P06401 whole entry): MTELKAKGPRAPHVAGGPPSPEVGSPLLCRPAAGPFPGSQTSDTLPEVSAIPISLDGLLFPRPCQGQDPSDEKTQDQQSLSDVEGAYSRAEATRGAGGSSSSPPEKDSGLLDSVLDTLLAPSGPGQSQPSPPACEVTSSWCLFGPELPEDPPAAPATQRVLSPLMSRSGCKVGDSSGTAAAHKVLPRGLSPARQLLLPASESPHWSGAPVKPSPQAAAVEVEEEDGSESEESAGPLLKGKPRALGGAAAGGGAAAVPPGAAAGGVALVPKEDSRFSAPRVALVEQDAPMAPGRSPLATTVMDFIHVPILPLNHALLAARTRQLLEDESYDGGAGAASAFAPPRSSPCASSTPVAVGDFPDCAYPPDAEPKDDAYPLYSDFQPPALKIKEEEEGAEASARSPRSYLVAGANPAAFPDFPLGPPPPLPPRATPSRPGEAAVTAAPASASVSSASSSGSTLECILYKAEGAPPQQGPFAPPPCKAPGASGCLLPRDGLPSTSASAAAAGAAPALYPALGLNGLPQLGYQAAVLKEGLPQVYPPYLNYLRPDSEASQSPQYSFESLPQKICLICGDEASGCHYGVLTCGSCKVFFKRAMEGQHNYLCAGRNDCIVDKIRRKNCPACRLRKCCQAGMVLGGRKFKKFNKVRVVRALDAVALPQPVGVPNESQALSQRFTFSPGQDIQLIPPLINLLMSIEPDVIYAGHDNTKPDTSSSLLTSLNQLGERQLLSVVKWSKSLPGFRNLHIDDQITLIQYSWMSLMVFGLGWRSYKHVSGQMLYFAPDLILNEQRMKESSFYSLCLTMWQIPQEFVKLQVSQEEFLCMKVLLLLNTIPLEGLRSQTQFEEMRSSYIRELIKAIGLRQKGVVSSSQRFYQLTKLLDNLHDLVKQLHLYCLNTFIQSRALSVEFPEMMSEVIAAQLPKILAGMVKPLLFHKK

[2] = molecular target: Receptor tyrosine-protein kinase erbB-2 (Homo sapiens, UniProt P04626); format: functional
Sequence of Receptor tyrosine-protein kinase erbB-2 (P04626 whole entry): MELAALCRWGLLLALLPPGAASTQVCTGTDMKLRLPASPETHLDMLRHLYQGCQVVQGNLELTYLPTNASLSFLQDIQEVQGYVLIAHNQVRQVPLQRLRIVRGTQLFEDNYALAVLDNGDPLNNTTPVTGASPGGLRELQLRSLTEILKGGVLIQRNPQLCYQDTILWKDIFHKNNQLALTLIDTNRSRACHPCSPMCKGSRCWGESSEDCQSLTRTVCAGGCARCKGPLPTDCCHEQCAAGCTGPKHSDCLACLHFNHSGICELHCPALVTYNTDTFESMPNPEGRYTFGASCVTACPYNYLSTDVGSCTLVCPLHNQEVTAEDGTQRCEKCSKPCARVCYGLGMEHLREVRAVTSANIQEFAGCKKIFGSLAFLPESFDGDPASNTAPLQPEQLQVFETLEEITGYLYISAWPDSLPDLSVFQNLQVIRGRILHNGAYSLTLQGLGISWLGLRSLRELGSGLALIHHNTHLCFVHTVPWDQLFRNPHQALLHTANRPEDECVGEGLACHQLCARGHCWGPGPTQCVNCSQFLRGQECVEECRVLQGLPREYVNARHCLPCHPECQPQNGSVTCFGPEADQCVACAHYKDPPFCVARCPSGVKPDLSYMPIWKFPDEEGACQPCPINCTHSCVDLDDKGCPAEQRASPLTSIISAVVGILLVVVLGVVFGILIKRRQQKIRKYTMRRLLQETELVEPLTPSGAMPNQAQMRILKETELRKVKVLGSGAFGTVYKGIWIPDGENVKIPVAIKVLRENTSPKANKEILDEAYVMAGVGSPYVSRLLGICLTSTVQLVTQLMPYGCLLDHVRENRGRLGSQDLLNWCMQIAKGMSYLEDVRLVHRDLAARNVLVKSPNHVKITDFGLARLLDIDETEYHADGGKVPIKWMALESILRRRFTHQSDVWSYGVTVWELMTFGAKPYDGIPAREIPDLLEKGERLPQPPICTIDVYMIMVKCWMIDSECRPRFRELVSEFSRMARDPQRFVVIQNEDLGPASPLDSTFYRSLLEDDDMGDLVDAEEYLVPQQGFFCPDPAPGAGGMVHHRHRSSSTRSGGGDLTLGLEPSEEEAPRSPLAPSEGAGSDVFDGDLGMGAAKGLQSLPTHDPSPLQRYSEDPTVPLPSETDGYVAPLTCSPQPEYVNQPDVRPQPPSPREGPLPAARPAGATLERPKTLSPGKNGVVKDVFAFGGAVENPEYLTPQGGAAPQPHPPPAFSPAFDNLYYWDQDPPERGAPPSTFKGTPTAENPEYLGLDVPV
Note: assay procedure not described here.

Sequence of Mu-type opioid receptor (P35372 whole entry): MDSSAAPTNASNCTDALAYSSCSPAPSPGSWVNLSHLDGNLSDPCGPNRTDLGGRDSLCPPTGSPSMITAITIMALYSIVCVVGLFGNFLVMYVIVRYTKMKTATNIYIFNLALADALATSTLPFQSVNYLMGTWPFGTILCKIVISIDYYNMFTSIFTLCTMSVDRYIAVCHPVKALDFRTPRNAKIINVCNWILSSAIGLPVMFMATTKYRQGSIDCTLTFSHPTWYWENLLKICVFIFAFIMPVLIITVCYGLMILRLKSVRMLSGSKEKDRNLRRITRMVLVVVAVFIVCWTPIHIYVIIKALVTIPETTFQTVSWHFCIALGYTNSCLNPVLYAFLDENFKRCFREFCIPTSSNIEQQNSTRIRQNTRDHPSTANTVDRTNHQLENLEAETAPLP
Sequence of Gamma-aminobutyric acid receptor subunit alpha-1 (P62813 whole entry): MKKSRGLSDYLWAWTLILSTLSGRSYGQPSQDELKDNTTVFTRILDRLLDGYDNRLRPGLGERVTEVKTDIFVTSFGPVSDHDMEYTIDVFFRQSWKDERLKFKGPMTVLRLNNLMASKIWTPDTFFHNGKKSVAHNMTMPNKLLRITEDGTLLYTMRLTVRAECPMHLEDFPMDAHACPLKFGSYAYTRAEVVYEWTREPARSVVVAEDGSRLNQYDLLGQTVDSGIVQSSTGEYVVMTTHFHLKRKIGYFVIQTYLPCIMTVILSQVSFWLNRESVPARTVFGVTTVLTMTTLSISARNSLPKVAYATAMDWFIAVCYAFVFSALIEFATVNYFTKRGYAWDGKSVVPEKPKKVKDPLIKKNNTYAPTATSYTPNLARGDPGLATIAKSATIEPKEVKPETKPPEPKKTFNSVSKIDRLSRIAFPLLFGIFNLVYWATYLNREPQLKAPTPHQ

Row | Structure (SMILES) | AC50 [1] [µM] | AC50 (Mu-type opioid receptor) [µM] | AC50 (Estrogen receptor) [µM] | further results
1 | C#CCN(C)Cc1ccccc1 [PARGYLINE] | > 30 | > 30 | – | –
2 | CC(C)(CO)c1cc2cc(NC(=O)C3(c4ccc5c(c4)OC(F)(F)O5)CC3)c(F)cc2n1C[C@@H](O)CO [TEZACAFTOR] | – | – | – | AC50 (Glucocorticoid receptor): > 30 µM
3 | CCN(CC)CCn1c(=O)c(Cc2ccc(OC)cc2)nc2ccccc21 [CAROVERINE] | – | > 30 | > 30 | –
4 | CCCCCCO[C@@H](C)c1cccc(-c2csc(NC(=O)c3cc(Cl)c(/C=C(\C)C(=O)O)c(Cl)c3)n2)c1OC [LUSUTROMBOPAG] | > 30 | – | – | –
5 | C[C@]12CC[C@@H]3c4ccc(OC(=O)N(CCCl)CCCl)cc4CC[C@H]3[C@@H]1CC[C@@H]2OP(=O)(O)O [ESTRAMUSTINE PHOSPHATE] | > 30 | – | – | –
6 | CC[N+](CC)(CCNC(=O)C(=O)NCC[N+](CC)(CC)Cc1ccccc1Cl)Cc1ccccc1Cl [AMBENONIUM] | – | 4.3 | > 30 | –
7 | CC(C)NC[C@H](O)COc1ccc(O)cc1 [PRENALTEROL] | > 30 | – | – | –
8 | CC(C)/N=c1\cc2n(-c3ccc(Cl)cc3)c3ccccc3nc-2cc1Nc1ccc(Cl)cc1 [CLOFAZIMINE] | – | > 30 | 0.13 | AC50 (Glucocorticoid receptor): > 30 µM
9 | NCCCCCC(=O)O [AMINOCAPROIC ACID] | – | – | > 10 | –
10 | C=CCOc1ccc(CC(=O)O)cc1Cl [ALCLOFENAC] | > 30 | – | – | –
11 | CCN(CCO)CCCC(C)Nc1ccnc2cc(Cl)ccc12 (stereo not given) [HYDROXYCHLOROQUINE] | – | > 30 | – | –
12 | NCCCNCCSP(=O)(O)O [AMIFOSTINE] | – | > 30 | > 30 | –
13 | CC(C)C[C@H](NC(=O)[C@H](Cc1ccccc1)NC(=O)c1cnccn1)B(O)O [BORTEZOMIB] | – | > 30 | > 30 | –
14 | CC(=O)SCC(Cc1ccccc1)C(=O)NCC(=O)OCc1ccccc1 (stereo not given) [RACECADOTRIL] | – | > 30 | > 30 | AC50 (Glucocorticoid receptor): > 30 µM; AC50 (Progesterone receptor): > 30 µM
15 | OC[C@H]1NC[C@H](O)[C@@H](O)[C@H]1O | > 30 | – | – | –
16 | CS(=O)(=O)Nc1ccc([N+](=O)[O-])cc1Oc1ccccc1 [NIMESULIDE] | – | > 30 | – | –
17 | COc1cc2c(cc1OC)C1CC(=O)C(CC(C)C)CN1CC2 (stereo not given) [TETRABENAZINE] | – | – | – | AC50 [2]: > 30 µM
18 | CCOC(=O)[C@H](CCc1ccccc1)N[C@@H](C)C(=O)N1Cc2ccccc2C[C@H]1C(=O)O | > 30 | – | > 30 | AC50 (Progesterone receptor): > 30 µM
19 | O=C(O)[C@H]1/C(=C/CO)O[C@@H]2CC(=O)N21 [CLAVULANIC ACID] | – | – | – | AC50 (Glucocorticoid receptor): > 30 µM
20 | Cc1c(C)c2c(c(C)c1O)CCC(C)(COc1ccc(CC3SC(=O)NC3=O)cc1)O2 (stereo not given) [TROGLITAZONE] | – | > 30 | > 30 | AC50 (Progesterone receptor): > 30 µM
21 | N[C@@H](Cc1cc(I)c(Oc2cc(I)c(O)c(I)c2)c(I)c1)C(=O)O [LEVOTHYROXINE] | – | > 30 | – | –
22 | CN(C)CCOC(c1ccc(Cl)cc1)c1ccccn1 (stereo not given) [CARBINOXAMINE] | – | > 30 | > 30 | –
23 | C[C@@H](CN1CC(=O)NC(=O)C1)N1CC(=O)NC(=O)C1 [DEXRAZOXANE] | > 30 | – | – | –
24 | COc1cccc2c1C(=O)c1c(O)c3c(c(O)c1C2=O)C[C@@](O)(C(=O)CO)C[C@@H]3O[C@H]1C[C@H](N)[C@H](O[C@@H]2CCCCO2)[C@H](C)O1 [PIRARUBICIN] | > 30 | – | – | –
25 | CC(C)NCC(O)COc1ccc(CC(N)=O)cc1 (stereo not given) [ATENOLOL] | – | – | > 30 | –
26 | CC(=O)Oc1ccccc1C(=O)O [ASPIRIN] | – | – | 15.1 | AC50 (Progesterone receptor): > 30 µM

Row | Structure (SMILES) | AC50 [1] [µM] | AC50 (Mu-type opioid receptor) [µM] | AC50 (Estrogen receptor) [µM] | further results
27 | C[C@H](Cn1cnc2c(N)ncnc21)OCP(=O)(O)O [TENOFOVIR ANHYDROUS] | – | > 30 | > 30 | –
28 | C=CC1=C(C(=O)O)N2C(=O)[C@@H](NC(=O)/C(=N\O)c3csc(N)n3)[C@H]2SC1 | – | – | > 30 | AC50 (Progesterone receptor): > 30 µM
29 | CCOC(=O)Nc1ccc(NCc2ccc(F)cc2)nc1N [FLUPIRTINE] | – | > 30 | 3 | –
30 | CO[C@@]1(NC(=O)C(C(=O)O)c2ccc(O)cc2)C(=O)N2C(C(=O)O)=C(CSc3nnnn3C)CO[C@@H]21 (stereo not given in full) [MOXALACTAM] | > 30 | – | – | –
31 | CN(C)CCCC1(c2ccc(F)cc2)OCc2cc(C#N)ccc21 (stereo not given) [CITALOPRAM] | > 30 | – | > 30 | AC50 (Progesterone receptor): > 30 µM
32 | C[C@H](CS)C(=O)N1CCC[C@H]1C(=O)O [CAPTOPRIL] | – | – | – | AC50 (Progesterone receptor): > 30 µM
33 | O=NN(CCCl)C(=O)NC1CCCCC1 [LOMUSTINE] | > 30 | – | – | –
34 | N=C(N)NCC1COc2ccccc2O1 (stereo not given) [GUANOXAN] | > 30 | – | – | –
35 | O=C(O)COC(=O)Cc1ccccc1Nc1c(Cl)cccc1Cl [ACECLOFENAC] | – | – | > 30 | AC50 (Progesterone receptor): > 30 µM
36 | CCOc1ccccc1OCCN[C@H](C)Cc1ccc(OC)c(S(N)(=O)=O)c1 [TAMSULOSIN] | – | 3.8 | – | AC50 (Progesterone receptor): > 30 µM
37 | COC(=O)CCc1ccc(OCC(O)CNC(C)C)cc1 (stereo not given) [ESMOLOL] | – | > 30 | – | –
38 | CN(C)CCC=C1c2ccccc2CCc2ccccc21 [AMITRIPTYLINE] | – | – | > 30 | AC50 (Progesterone receptor): > 30 µM
39 | Nc1nnc(-c2cccc(Cl)c2Cl)c(N)n1 [LAMOTRIGINE] | – | – | – | AC50 (Progesterone receptor): > 30 µM
40 | CC(=O)NC[C@H]1CN(c2ccc(N3CCOCC3)c(F)c2)C(=O)O1 [LINEZOLID] | – | > 30 | – | –
41 | CN(C)CCN(Cc1ccccc1)c1ccccn1 [TRIPELENNAMINE] | > 30 | – | > 10 | –
42 | CN1CCC(N(Cc2cccs2)c2ccccc2)CC1 [THENALIDINE] | > 30 | – | – | –
43 | Cc1cc(C)cc(OCC2CNC(=O)O2)c1 (stereo not given) [METAXALONE] | > 30 | – | – | –
44 | CCOCC(O)COc1ccc(NC(=O)CC[S+](C)C)cc1 (stereo not given) | – | – | – | AC50 (Glucocorticoid receptor): > 30 µM
45 | CCCCCCCCCCCCCCCC(=O)OC[C@H](COP(=O)([O-])OCC[N+](C)(C)C)OC(=O)CCCCCCCCCCCCCCC [COLFOSCERIL PALMITATE] | > 30 | – | – | –
46 | O=c1[nH]cc(F)c(=O)[nH]1 [FLUOROURACIL] | > 30 | – | – | –
47 | O=C(c1ccccc1)c1ccc2n1CCC2C(=O)O (stereo not given) [KETOROLAC] | – | 0.0013 | – | –
48 | CC#CC(=O)N1CCC[C@H]1c1nc(-c2ccc(C(=O)Nc3ccccn3)cc2)c2c(N)nccn12 [ACALABRUTINIB] | > 30 | – | – | –
49 | O=C(Cc1cccs1)N[C@@H]1C(=O)N2C(C(=O)[O-])=C(C[n+]3ccccc3)CS[C@H]12 [CEPHALORIDINE] | > 30 | > 30 | – | –
50 | CN(C)CCc1c[nH]c2ccc(CS(=O)(=O)N3CCCC3)cc12 [ALMOTRIPTAN] | – | > 30 | > 30 | –
51 | C[C@]12CCC(=O)C=C1CC[C@H]1[C@@H]3CC[C@](O)(C(=O)CO)[C@@]3(C)C[C@H](O)[C@@]12F [FLUDROCORTISONE] | – | – | > 30 | AC50 (Progesterone receptor): > 30 µM
52 | O=C(O)[C@@H](S)[C@@H](S)C(=O)O | > 30 | – | – | –
